{"source": "paper PMC4057235", "about": "“Development and Evaluation of Small Peptidomimetic Ligands to Protease-Activated Receptor-2 (PAR2) through the Use of Lipid Tethering” (PLoS ONE, 2014)", "key": {"PAR2": {"molecular_target": "T1, PAR2 (Homo sapiens, UniProt P55085)", "T1 construct": "16HBE14o- cells on E-plates in growth medium; endogenous in cells; host or cells: 16HBE14o- cells", "T1 sequence (P55085 26-397)": "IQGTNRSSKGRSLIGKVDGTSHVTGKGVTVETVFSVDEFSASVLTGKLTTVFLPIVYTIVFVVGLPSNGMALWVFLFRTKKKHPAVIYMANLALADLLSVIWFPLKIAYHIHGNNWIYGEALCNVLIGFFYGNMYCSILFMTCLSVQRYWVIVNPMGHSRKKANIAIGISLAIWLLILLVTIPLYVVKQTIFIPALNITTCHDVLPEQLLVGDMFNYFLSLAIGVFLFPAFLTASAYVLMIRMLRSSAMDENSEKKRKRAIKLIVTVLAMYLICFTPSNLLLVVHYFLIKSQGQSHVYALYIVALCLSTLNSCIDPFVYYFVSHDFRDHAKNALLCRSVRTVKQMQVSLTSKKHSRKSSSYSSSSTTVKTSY", "assay": "xCELLigence RTCA in vitro physiological response, 16HBE14o- cells", "type": "cell-based", "conditions": "for EC50: peak Normalized Cell Index within 4 hr", "excerpt": "16HBE14o- cells, a SV40 transformed human bronchial epithelial cell line, were obtained through the California Pacific Medical Center Research Institute (San Francisco, CA, USA). Cells were maintained and expanded as previously described. Briefly, cell lines were expanded in tissue culture flasks prior to transfer to 96 well E-plates (Roche) for experiments. Flasks and 96 well E-plates were coated initially with a matrix coating solution (88% Lechner and LaVeck basal medium, 10% bovine serum albumin (BSA; from 1 mg/ml stock), 1% bovine collagen type I (from 2.9 mg/ml stock), and 1% human fibronectin (from 1 mg/ml stock solution) and incubated for 2 hr at 37°C, after which the coating solution was removed and allowed to dry for at least 1 hr. 16HBE14o- cells were plated at a concentration of 1×10^5 cells/cm^2 and grown in Eagle’s Minimal Essential Medium supplemented with 10% Fetal Bovine Serum (FBS), 2 mM glutamax, penicillin and streptomycin (growth medium) at 37°C in a 5% CO2 atmosphere. Growth medium was replaced every other day until the cells reached confluence (5–7 days). Cells were then transferred to 96 well E-plates for RTCA, or collagen/fibronectin/BSA coated glass coverslips for Ca^2+ imaging experiments.\n16HBE14o- cells on E-plates in growth medium and in a 37°C, 5% CO2 incubator were monitored for the establishment for relative impedance overnight every 15 min using the xCELLigence™ Real Time Cell Analyzer (RTCA, Roche), [28], [30]. When cells reached baseline impedance the next day, and prior to the experiment, the RTCA was moved to room air and temperature where full growth medium was replaced with 100μL modified Hank’s Balanced Saline Solution (HBSS) pre-warmed to 37°C. The RTCA was then allowed to come to room temperature (45–60 min) prior to ligand addition. Each well was then supplemented with 100 µL HBSS containing appropriate ligands to measure concentration response ranges in quadruplicate. Additional wells were used for vehicle controls. Relative impedance in each well was monitored every 30 sec over 4 hr. Peak responses, defined as the maximal change in Normalized Cell Index, were used to define maximal response concentrations and physiological EC50s for each ligand."}, "mice": {"tested_on": "mice", "assay": "In vivo mechanical sensitivity (von Frey) after hindpaw injection", "set-up": "species or system mouse", "conditions": "15 pmoles into plantar hindpaw, 1 and 3 hr post-injection", "experimental": "Male ICR mice (Harlan) or PAR2 ^-/- mice and their wild type littermates on a C57Bl/6 background weighing 25–30 grams were used for these studies. Animal protocols were approved by the Institutional Animal Care and Use Committee of The University of Arizona. Compounds were injected into the plantar surface of the hindpaw in a total volume of 25 µL using a 31-gauge needle. Compounds were diluted using sterile saline. Mechanical thresholds were determined using calibrated von Frey filaments (Stoelting Co, Wood Dale, IN) with the up-down method. The experimenter was always blinded to the treatment conditions and animals were randomized such that animals in a single experimental group were never all housed together."}, "MrgprC11": {"molecular_target": "T2, MrgprC11 (Mus musculus, UniProt Q8CIP3)", "T2 construct": "An MrgprC11 cDNA in pcDNA3.1 vector was transfected into CHO cells; expressed in transfected cells; host or cells: CHO cells, transient transfection with Lipofectamine 2000", "T2 sequence (Q8CIP3 1-322)": "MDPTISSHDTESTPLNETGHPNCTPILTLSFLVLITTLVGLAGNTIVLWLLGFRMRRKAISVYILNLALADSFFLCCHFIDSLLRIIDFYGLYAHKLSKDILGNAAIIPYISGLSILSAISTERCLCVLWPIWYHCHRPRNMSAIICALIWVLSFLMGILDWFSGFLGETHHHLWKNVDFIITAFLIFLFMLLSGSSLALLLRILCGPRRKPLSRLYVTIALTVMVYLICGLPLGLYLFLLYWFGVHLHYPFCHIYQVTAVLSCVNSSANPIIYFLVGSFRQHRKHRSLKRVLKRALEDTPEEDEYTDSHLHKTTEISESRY", "assay": "Ca2+ response in MrgprC11 transfected CHO cells", "type": "cell-based", "experimental": "CHO cells were cultured in DMEM supplemented with 10% FBS and 1% penicillin and streptomycin at 37°C in a 5% CO2 atmosphere. One day before transfection, CHO cells were plated in a 60 mm cell culture dish at a concentration of 1×10^5 cells/cm^2 and grown without antibiotics. An MrgprC11 cDNA in pcDNA3.1 vector was transfected into CHO cells using Lipofectamine™ 2000 (Invitrogen) prior to transfer to coverslips for experiments. Coverslips were coated with 0.1 mg/ml poly-D-lysine (from 2 mg/ml stock) and incubated for 1 hr at room temperature, after which the coating solution was removed and the coverslips were washed twice with double distilled water. CHO cells were seeded on coverslips at a concentration of 1×10^5 cells/cm^2 6 hr after transfection. Transfected cells were incubated for 24 hr prior to Ca^2+ imaging.\n16HBE14o- cells or CHO cells were loaded with fura 2-acetomethoxyl ester (CalBiochem or Molecular Probes) for 30 min at room temperature. Cells were washed with HBSS and allowed to sit for at least 20 min prior to digital imaging. For activation and desensitization assay experiments using 16HBE14o- cells, [Ca^2+]i was measured as previously described. Experiments consisted of 20 sec of recording of cells in HBSS to determine resting [Ca^2+]i, followed by a 10 sec wash to introduce ligand and up to 10 min of recording for ligand washes required for desensitization experiments. Briefly, fura-2 fluorescence was observed on an Olympus IX70 microscope with a 40X oil immersion objective after alternating excitation between 340 and 380 nm by a 75 W Xenon lamp linked to a Delta Ram V illuminator (PTI) and a gel optic line. Intracellular Ca^2+ concentration ([Ca^2+]i) for each individual cell in the field of view was calculated by ratiometric analysis of fura-2 fluorescence using equations originally published in [31]. Individual ratios were calculated every sec throughout the experiments. [Ca^2+]i traces over time are averaged [Ca^2+]i of all cells within a field of view (80–120) and are representative of at least 3 experiments. Cells were considered activated by the ligand if their resting [Ca^2+]i was increased above a 200 nM threshold, a 2–4 fold increase above typical resting values. Percent activation graphs are determined from 3–6 experiments for each ligand concentration. Time to threshold in individual cells represent between 200–400 cells from at least 3 experiments at each ligand concentration. Ca^2+ imaging of CHO cells was similar; each ligand concentration tested included at least 3 experiments and a minimum of 200 cells analyzed during each experiment."}}, "note": "Where two headings read alike, the source gives them in different places. Square brackets hold non-standard residues; d marks the D form. Peptide text beside a SMILES is read from it. * marks the point of attachment. 4Thiazolecarbonyl(2-NH2) = Nc1nc(C(=O)*)cs1; Cha = N[C@@H](CC1CCCCC1)C(=O)O", "data": [{"smiles": "CCCCCCCCCCCCCCCCNC(=O)COCC(=O)NCCCOCCOCCOCCCNC(=O)COCC(=O)NCCCOCCOCCOCCCNC(=O)[C@@H](NC(=O)[C@H](CC1CCCCC1)NC(=O)c1csc(N)n1)[C@@H](C)CC", "note": "[Compound 13, 2at-Cha-I-PEG2-Hdc]", "values": [{"measurement": "EC50", "setting": "PAR2", "value": 0.086, "unit": "µM"}]}, {"smiles": "CCCCCCCCCCCCCCCCNC(=O)COCC(=O)NCCCOCCOCCOCCCNC(=O)COCC(=O)NCCCOCCOCCOCCCNC(=O)[C@H](CCCNC(=N)N)NC(=O)CNC(=O)[C@@H](NC(=O)[C@H](CC1CCCCC1)NC(=O)c1ccno1)[C@@H](C)CC", "note": "[Compound 12, 5io-Cha-IGR-PEG2-Hdc]", "values": [{"measurement": "EC50", "setting": "PAR2", "value": 0.0068, "unit": "µM"}]}, {"smiles": "CC[C@H](C)[C@H](NC(=O)[C@H](CC1CCCCC1)NC(=O)c1csc(N)n1)C(=O)NCC(=O)N[C@@H](CCCNC(=N)N)C(N)=O", "note": "[Compound 7, 2at-Cha-IGR-NH2] ({4Thiazolecarbonyl(2-NH2)}-[Cha]IGR-NH2)", "values": [{"measurement": "EC50", "setting": "PAR2", "value": 0.49, "unit": "µM"}]}, {"smiles": "CCCCCCCCCCCCCCCCNC(=O)COCC(=O)NCCCOCCOCCOCCCNC(=O)COCC(=O)NCCCOCCOCCOCCCNC(=O)COCC(=O)NCCCOCCOCCOCCCNC(=O)C(CC(C)C)NC(=O)c1csc(N)n1", "note": "[Compound 5, 2at-L-PEG3-Hdc]", "values": [{"measurement": "RTCA response / agonism (peak Normalized Cell Index)", "setting": "PAR2", "value": "eliminated ligand activity"}, {"measurement": "RTCA response / agonism (peak Normalized Cell Index)", "setting": "PAR2; listed as 2at-L-PEG 3-Hdc", "value": "eliminated in vitro activity"}, {"measurement": "mechanical hypersensitivity (von Frey)", "setting": "mice", "value": "inactive"}, {"measurement": "mechanical hypersensitivity (von Frey)", "setting": "mice; listed as 2at-L-PEG 3-Hdc", "value": "lacked efficacy"}]}, {"smiles": "CCCCCCCCCCCCCCCCNC(=O)COCC(=O)NCCCOCCOCCOCCCNC(=O)COCC(=O)NCCCOCCOCCOCCCNC(=O)COCC(=O)NCCCOCCOCCOCCCNC(=O)[C@@H](NC(=O)[C@H](CC(C)C)NC(=O)c1csc(N)n1)[C@@H](C)CC", "note": "[Compound 4, 2at-LI-PEG3-Hdc]", "values": [{"measurement": "EC50", "setting": "PAR2", "value": 0.31, "unit": "µM"}]}, {"smiles": "CCCCCCCCCCCCCCCCNC(=O)COCC(=O)NCCCOCCOCCOCCCNC(=O)COCC(=O)NCCCOCCOCCOCCCNC(=O)[C@H](CCCNC(=N)N)NC(=O)CNC(=O)[C@@H](NC(=O)[C@H](CC1CCCCC1)NC(=O)c1csc(N)n1)[C@@H](C)CC", "note": "[Compound 11, 2at-Cha-IGR-PEG2-Hdc]", "values": [{"measurement": "EC50", "setting": "PAR2", "value": 0.016, "unit": "µM"}]}, {"smiles": "CCCCCCCCCCCCCCCCNC(=O)COCC(=O)NCCCOCCOCCOCCCNC(=O)COCC(=O)NCCCOCCOCCOCCCNC(=O)COCC(=O)NCCCOCCOCCOCCCNC(=O)c1csc(N)n1", "note": "[Compound 6, 2at-PEG3-Hdc]", "values": [{"measurement": "RTCA response / agonism (peak Normalized Cell Index)", "setting": "PAR2", "value": "eliminated ligand activity"}, {"measurement": "RTCA response / agonism (peak Normalized Cell Index)", "setting": "PAR2; listed as 2at-PEG 3-Hdc", "value": "eliminated in vitro activity"}]}, {"smiles": "CCCCCCCCCCCCCCCCNC(=O)COCC(=O)NCCCOCCOCCOCCCNC(=O)COCC(=O)NCCCOCCOCCOCCCNC(=O)COCC(=O)NCCCOCCOCCOCCCNC(=O)CNC(=O)[C@@H](NC(=O)[C@H](CC(C)C)NC(=O)c1csc(N)n1)[C@@H](C)CC", "note": "[Compound 3, 2at-LIG-PEG3-Hdc]", "values": [{"measurement": "EC50", "setting": "PAR2", "value": 0.046, "unit": "µM"}]}, {"smiles": "CCCCCCCCCCCCCCCCNC(=O)COCC(=O)NCCCOCCOCCOCCCNC(=O)COCC(=O)NCCCOCCOCCOCCCNC(=O)COCC(=O)NCCCOCCOCCOCCCNC(=O)[C@H](CC(C)C)NC(=O)[C@H](CCCNC(=N)N)NC(=O)CNC(=O)[C@@H](NC(=O)[C@H](CC(C)C)NC(=O)c1csc(N)n1)[C@@H](C)CC", "note": "[Compound 1, 2at-LIGRL-PEG3-Hdc]", "values": [{"measurement": "Ca2+ response (% of cells)", "setting": "MrgprC11; 1 nM", "value": 0, "unit": "%"}, {"measurement": "Ca2+ response (% of cells)", "setting": "MrgprC11; 10 nM", "value": 2.5, "unit": "%"}, {"measurement": "Ca2+ response (% of cells)", "setting": "MrgprC11; 100 nM", "value": 10, "unit": "%"}, {"measurement": "Ca2+ response (% of cells)", "setting": "MrgprC11; 1 µM", "value": 20, "unit": "%"}, {"measurement": "Ca2+ response (% of cells)", "setting": "MrgprC11; 10 µM", "value": "88 ± 19", "unit": "%"}, {"measurement": "EC50", "setting": "PAR2", "value": 0.0017, "unit": "µM"}]}, {"smiles": "CC[C@H](C)[C@H](NC(=O)[C@H](CC1CCCCC1)NC(=O)c1csc(N)n1)C(N)=O", "note": "[Compound 9, 2at-Cha-I-NH2]", "values": [{"measurement": "EC50", "setting": "PAR2", "value": 1.1, "unit": "µM"}]}, {"smiles": "CCCCCCCCCCCCCCCCNC(=O)COCC(=O)NCCCOCCOCCOCCCNC(=O)COCC(=O)NCCCOCCOCCOCCCNC(=O)COCC(=O)NCCCOCCOCCOCCCNC(=O)[C@H](CCCNC(=N)N)NC(=O)CNC(=O)[C@@H](NC(=O)[C@H](CC(C)C)NC(=O)c1csc(N)n1)[C@@H](C)CC", "note": "[Compound 2, 2at-LIGR-PEG3-Hdc]", "values": [{"measurement": "Ca2+ response (% of cells)", "setting": "MrgprC11; 100 nM", "value": 0.5, "unit": "%"}, {"measurement": "EC50", "setting": "PAR2", "value": 0.0021, "unit": "µM"}]}, {"smiles": "CCCCCCCCCCCCCCCCNC(=O)COCC(=O)NCCCOCCOCCOCCCNC(=O)COCC(=O)NCCCOCCOCCOCCCNC(=O)[C@@H](NC(=O)[C@H](CC1CCCCC1)NC(=O)c1ccno1)[C@@H](C)CC", "note": "[Compound 14, 5io-Cha-I-PEG2-Hdc]", "values": [{"measurement": "EC50", "setting": "PAR2", "value": 0.043, "unit": "µM"}]}]}
